Data from patent US20110269786A1, “TREATMENT OF MAJOR ADVERSE CARDIAC EVENTS AND ACUTE CORONARY SYNDROME IN DIABETIC PATIENTS USING SECRETORY PHOSPHOLIPASE A2 (SPLA2) INHIBITOR OR SPLA2 INHIBITOR COMBINATION THERAPIES” (priority 2010, published 2011).

Legend:
[1] = Clinical trial in post-ACS subjects: MACE occurrence in diabetic subpopulation; details: cumulative at 16 weeks
Procedure: 625 adult (18 years of age or older) human subjects who had recently experienced an index ACS event (UA, NSTEMI, or STEMI) were randomized to receive placebo or A-002 at 500 mg once daily via oral administration in a double-blinded manner. A-002 was delivered in the form of two 250 mg tablets. In addition, all subjects received atorvastatin at 80 mg once daily via oral administration of a single tablet.
Subjects were excluded if they were receiving statin therapy at maximum recommended or tolerated dosage (i.e., 40-80 mg QD for atorvastatin, fluvastatin, lovastatin, pravastatin, or simvastatin, or 20-40 mg QD rosuvastatin) at the time of the index ACS event. During the trial, subjects were prevented from using any lipid-lowering therapy other than 80 mg atorvastatin and/or A-002.
For purposes of this study, MACEs included all-cause mortality, non-fatal MI, documented UA requiring urgent hospitalization, revascularization occurring 60 days or more after the initial index ACS event, and non-fatal stroke. Subjects were evaluated at various timepoints after randomization and at study completion. Each evaluation included measurement of serum LDL levels and recordation of any MACEs or less severe adverse events occurring since the previous evaluation. In addition, certain evaluation periods included measurement of one or more of hs-CRP, sPLA2, IL-6, and/or other biomarker levels, vital signs, weight, and/or waist circumference. […] This final evaluation included at least a complete physical examination, a 12-lead ECG reading, measurement of LDL, hs-CRP, sPLA2, and IL-6 levels, and recordation of any MACEs during the study period.

[2] = 80 mg atorvastatin; subjects that had recently experienced an ACS event; cited from earlier work
[3] = Clinical trial in post-ACS subjects: MACE occurrence in ITT population; assay type: in vivo, human; details: at 16 weeks
Procedure: A-002 was delivered in the form of two 250 mg tablets. In addition, all subjects received atorvastatin at 80 mg once daily via oral administration of a single tablet.
Subjects were randomized within 96 hours of hospital admission for an index ACS event, or within 96 hours of index ACS event diagnosis if already hospitalized. Prior to randomization, subjects were screened for pertinent medical history, and baseline levels of LDL and hs-CRP were measured. Baseline sPLA2 levels were also measured in a random subset of subjects. Percutaneous revascularization, if required or planned for a particular subject, was performed prior to randomization.
Subjects were excluded if they were receiving statin therapy at maximum recommended or tolerated dosage (i.e., 40-80 mg QD for atorvastatin, fluvastatin, lovastatin, pravastatin, or simvastatin, or 20-40 mg QD rosuvastatin) at the time of the index ACS event. […]
For purposes of this study, MACEs included all-cause mortality, non-fatal MI, documented UA requiring urgent hospitalization, revascularization occurring 60 days or more after the initial index ACS event, and non-fatal stroke. […] This final evaluation included at least a complete physical examination, a 12-lead ECG reading, measurement of LDL, hs-CRP, sPLA2, and IL-6 levels, and recordation of any MACEs during the study period.

[4] = cited from earlier work
[5] = in vivo; cited from earlier work

SMILES | Death, % of subjects [1] [%] | Death, number of subjects [1] | MI, % of subjects [1] [%] | MI, number of subjects [1] | Revascularization ≧ 60 days, % of subjects [1] [%] | Revascularization ≧ 60 days, number of subjects [1] | Stroke, % of subjects [1] [%] | Stroke, number of subjects [1] | Total MACEs, % of subjects [1] [%] | UA requiring hospitalization, % of subjects [1] [%] | UA requiring hospitalization, number of subjects [1] | absolute reduction in death, non-fatal MI, cardiac arrest with resuscitation, or worsening symptomatic myocardial ischemia [2] [%] | relative reduction in death, non-fatal MI, cardiac arrest with resuscitation, or worsening symptomatic myocardial ischemia [2] [%] | % of subjects who experienced a MACE [3] [%] | effect on total cholesterol, LDL-C, total LDL-C particle, and small LDL-C particle levels ([4]; once- or twice-daily administration, stable CVD population, diabetic and high baseline LDL-C subpopulations) | effect on levels of inflammatory markers such as hs-CRP and sPLA2 ([4]; stable populations) | absorption and conversion to active molecule [5] | terminal half-life (t1/2) [5]
CC(C)c1c(C(=O)Nc2ccccc2)c(-c2ccccc2)c(-c2ccc(F)cc2)n1CC[C@@H](O)C[C@@H](O)CC(=O)O [Placebo (atorvastatin only), atorvastatin] | 3.4 | 3 | 0.0 | 0 | 0.0 | 0 | 0.0 | 0 | 6.9 | 3.4 | 3 | 2.6 | 16 | 6.1 | – | – | – | –
CCc1c(C(=O)C(N)=O)c2c(OCC(=O)OC)cccc2n1Cc1ccccc1 [A-002, [[3-(2-Amino-1,2-dioxoethyl)-2-ethyl-1-(phenylmethyl)-1H-indol-4-yl]oxy]acetic acid methyl ester] | – | – | – | – | – | – | – | – | – | – | – | – | – | – | decreases | decreases | rapidly absorbed and hydrolyzed to the active A-001 molecule | approximately ten
